For the assay, the target named is T1, renin (Homo sapiens, UniProt P00797).
T1 construct: This test measures the formation of angiotensin I in human plasma; from tissue; host or cells: human plasma
T1 sequence (P00797 67-406): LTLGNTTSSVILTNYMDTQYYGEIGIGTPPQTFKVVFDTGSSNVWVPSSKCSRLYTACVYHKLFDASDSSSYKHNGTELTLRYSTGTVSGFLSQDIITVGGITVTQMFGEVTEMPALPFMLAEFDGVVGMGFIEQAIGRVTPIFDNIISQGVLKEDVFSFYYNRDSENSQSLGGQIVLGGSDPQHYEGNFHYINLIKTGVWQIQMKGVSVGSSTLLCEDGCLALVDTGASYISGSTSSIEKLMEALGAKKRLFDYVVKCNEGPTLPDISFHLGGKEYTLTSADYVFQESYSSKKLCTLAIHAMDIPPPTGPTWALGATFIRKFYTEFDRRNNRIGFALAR
The assay is described as follows: formation of angiotensin I in human plasma (Nussberger et al.), radioimmunoassay. In kind it is biochemical. To be noted: angiotensin I determined by radioimmunoassay, read-out: IC50, inhibition of the formation of angiotensin I. Here is the method:
The effect of renin inhibitors is detected inter alia experimentally by means of in vitro tests where the reduction in the formation of angiotensin I is measured in various systems (human plasma, purified human renin together with synthetic or natural renin substrate). The following in vitro test of Nussberger et al. (1987) J. Cardiovascular Pharmacol., Vol. 9, pp. 39-44, is used inter alia. This test measures the formation of angiotensin I in human plasma. The amount of angiotensin I formed is determined in a subsequent radioimmunoassay. The effect of inhibitors on the formation of angiotensin I is tested in this system by adding various concentrations of these substances. The IC50 is defined as the concentration of the particular inhibitor which reduces the formation of angiotensin I by 50%. The compounds of the present invention show inhibitory effects in the in vitro systems at minimal concentrations of about 10^−6 mol/l to about 10^−10 mol/l.

Turning to `COCCCN1CCOc2ccc(CO[C@H]3CN[C@@H](Cc4nncn4C)C[C@@H]3c3ccc(COC[C@@H](C)COC)cc3)cc21` [Example 8, 6-[(3R,4R,6R)-4-[4-((S)-3-Methoxy-2-methyl-propoxymethyl)-phenyl]-6-(4-methyl-4H-[1,2,4]triazol-3-ylmethyl)-piperidin-3-yloxymethyl]-4-(3-methoxy-propyl)-3,4-dihydro-2H-benzo[1,4]oxazine], the IC50 fell in the range of 0.1 to 10 nM.
To `COCCCN1CCOc2ccc(CO[C@H]3CN[C@@H](CN4CCOCC4)C[C@@H]3c3ccc(COC[C@@H](C)COC)cc3)cc21` [Example 10, 6-{(3R,4R,6R)-4-[4-((S)-3-Methoxy-2-methyl-propoxymethyl)-phenyl]-6-morpholin-4-ylmethyl-piperidin-3-yloxymethyl}-4-(3-methoxy-propyl)-3,4-dihydro-2H-benzo[1,4]oxazine] belongs 0.1 to 10 nM.

Usually IC50 stands for the concentration that inhibits the measured activity by half.

The record behind these values is patent US8022068B2, “Substituted piperidines as renin inhibitors” (Novartis AG, priority 2008, dated 2011).
